Structures can show the parent of a compound that is named as a salt.
Legend:
DNA polymerase α = molecular target: T1, DNA polymerase α (Bos taurus, UniProt A0AAA9TD94); test: Assay 1: inhibitory effect against DNA polymerase α ([3H]-dTTP incorporation); assay type: biochemical; conditions: DNA polymerase α from bovine thymus, 0.05 U, 37° C., 60 minutes
T1 construct: from tissue; host or cells: bovine thymus
T1 sequence (A0AAA9TD94 1-1441): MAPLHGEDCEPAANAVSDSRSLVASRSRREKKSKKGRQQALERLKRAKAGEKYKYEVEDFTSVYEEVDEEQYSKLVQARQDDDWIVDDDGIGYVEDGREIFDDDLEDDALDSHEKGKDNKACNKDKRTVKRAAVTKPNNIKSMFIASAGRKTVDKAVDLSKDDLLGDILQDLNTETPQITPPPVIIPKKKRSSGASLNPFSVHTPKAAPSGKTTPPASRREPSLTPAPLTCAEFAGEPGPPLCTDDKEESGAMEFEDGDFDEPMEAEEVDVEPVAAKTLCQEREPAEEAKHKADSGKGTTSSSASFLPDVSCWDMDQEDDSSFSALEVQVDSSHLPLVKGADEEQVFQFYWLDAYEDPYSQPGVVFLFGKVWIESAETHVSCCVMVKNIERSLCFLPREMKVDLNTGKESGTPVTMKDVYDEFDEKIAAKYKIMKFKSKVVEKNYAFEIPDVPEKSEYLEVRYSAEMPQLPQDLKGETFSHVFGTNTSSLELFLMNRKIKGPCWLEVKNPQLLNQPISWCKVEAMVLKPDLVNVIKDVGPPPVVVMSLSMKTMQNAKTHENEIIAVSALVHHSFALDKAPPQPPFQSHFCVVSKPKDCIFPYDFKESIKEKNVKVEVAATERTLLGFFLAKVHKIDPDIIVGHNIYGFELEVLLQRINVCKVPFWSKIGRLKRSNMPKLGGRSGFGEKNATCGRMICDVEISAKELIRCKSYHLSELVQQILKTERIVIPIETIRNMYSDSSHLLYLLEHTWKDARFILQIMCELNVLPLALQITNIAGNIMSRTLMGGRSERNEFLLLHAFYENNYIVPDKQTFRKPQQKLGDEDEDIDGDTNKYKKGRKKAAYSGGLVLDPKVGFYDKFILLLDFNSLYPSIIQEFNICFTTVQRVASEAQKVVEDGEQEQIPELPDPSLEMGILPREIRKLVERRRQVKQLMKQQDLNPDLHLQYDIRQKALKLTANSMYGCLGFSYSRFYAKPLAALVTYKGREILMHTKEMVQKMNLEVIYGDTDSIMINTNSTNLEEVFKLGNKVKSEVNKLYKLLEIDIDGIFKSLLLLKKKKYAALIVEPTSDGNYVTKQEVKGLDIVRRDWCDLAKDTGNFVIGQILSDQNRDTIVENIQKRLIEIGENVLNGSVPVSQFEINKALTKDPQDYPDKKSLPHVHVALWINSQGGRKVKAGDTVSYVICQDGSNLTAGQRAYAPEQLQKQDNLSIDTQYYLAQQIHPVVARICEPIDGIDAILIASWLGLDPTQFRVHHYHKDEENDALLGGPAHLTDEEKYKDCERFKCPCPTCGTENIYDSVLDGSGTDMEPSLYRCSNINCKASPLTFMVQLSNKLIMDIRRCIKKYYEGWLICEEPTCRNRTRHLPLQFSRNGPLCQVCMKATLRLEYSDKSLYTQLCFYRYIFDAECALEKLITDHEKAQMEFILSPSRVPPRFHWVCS
Method: An assay on inhibitory effect against a DNA polymerase α was carried out in the following manner.
(§1) Each mixture was added with a buffer containing inorganic salts for the enzymatic reaction, [^3H]-labeled dTTP and compounds for reaction containing a template DNA strand, and incubated at 37° C. for 60 minutes.
(§2) After the enzymatic reaction was quenched, the resultant reaction product was fixed on a dedicated filter and subjected to measurement by a liquid scintillation counter. The amount of enzymatically incorporated dTTP was calculated as a radiation dose (cpm) of [^3H]. Note that, each of the sulforhamnosylacylglycerol derivatives is a mixture of the S- and R-configurations with respect to an absolute configuration of the carbon of the 2-position of the glycerol moiety.

[1] = tested on: gastric cancer cells NUGC-3; test: Assay 4: anticancer activity against cultured gastric cancer cells (MTT assay); assay type: cell-based; conditions: Homo sapiens, NUGC-3, 48 hour cultivation
Method: (§3) Colon cancer cells DLD-1 were maintained and subcultured in RPMI 1640 medium (containing 10% calf serum). Each of the test compounds (SRAG1 to SRAG3 shown in Table 1) was suspended and diluted in the medium, and then the cancer cells were cultivated together with the medium in a 96-well plate at 3×10^3 cells/well. After 48 hour cultivation, the MTT assay (Mosmann, T: Journal of Immunological Method, 65, 55-63 (1983)) was carried out to compare survival rates.
An assay on anticancer activity against cultured gastric cancer cells was carried out in the same manner as in the assay 3 except that gastric cancer cells NUGC-3 were used instead of the colon cancer cells DLD-1.

DNA polymerase β = molecular target: T2, DNA polymerase β (Rattus norvegicus, UniProt P06766); test: Assay 2: inhibitory effect against DNA polymerase β ([3H]-dTTP incorporation); assay type: biochemical; conditions: for inhibitory effect against the DNA polymerase β (in words): at the tested concentrations, summary of Table 2; for IC50: recombinant rat DNA polymerase β, 0.05 U, 37° C., 60 minutes
T2 construct: made in house; host or cells: E. coli
Method: as §1, §2
An assay on inhibitory effect against a DNA polymerase β was carried out in the following manner.
The same procedure as in Assay 1 was carried out except that 0.05 U of DNA polymerase β was used in place of the DNA polymerase α. The DNA polymerase β was prepared from recombinant E. coli introduced with rat DNA polymerase β gene. In this way, the inhibitory effect of test compounds (SRAG1, SRAG2 and SRAG3 shown in Table 1 and dissolved in DMSO) against DNA polymerase : was assayed.

Colon cancer cells DLD-1 = test: Assay 3: anticancer activity against cultured colon cancer cells (MTT assay); assay type: cell-based; conditions: Homo sapiens, DLD-1, 48 hour cultivation
Method: An assay on anticancer activity against cultured colon cancer cells was carried out in the following manner.
as §3

Row | SMILES | IC50 (DNA polymerase α) [µM] | IC50 [1] [mg/L] | inhibitory effect against the DNA polymerase β (in words) (DNA polymerase β) | IC50 (DNA polymerase β) [µM] | IC50 (Colon cancer cells DLD-1) [mg/L]
1 | CCCCCCCCCCCCCC(=O)OCC(O)CO[C@H]1O[C@H](CS(=O)(=O)[O-])[C@@H](O)[C@H](O)[C@@H]1O.[Na+] (stereo partly drawn) [SRAG1, 3-O-(6-deoxy-6-sulfo-α-D-mannopyranosyl)-1-O-myristoyl-glycerol sodium salt] | 23.6 | 45 | did not show an inhibitory effect | > 90.8 | 42.5
2 | CCCCCCCCCCCCCCCCCC(=O)OCC(CO[C@H]1O[C@H](CS(=O)(=O)O)[C@@H](O)[C@H](O)[C@@H]1O)OC(=O)CCCCCCCCCCCCCCCCC (stereo partly drawn) [SRAG4, 3-O-(6-deoxy-6-sulfo-α-D-mannopyranosyl)-1,2-di-O-stearoyl-glycerol sodium salt] | 0.115 |  |  |  | 
3 | CCCCCCCCCCCCCCCC(=O)OCC(O)CO[C@H]1O[C@H](CS(=O)(=O)[O-])[C@@H](O)[C@H](O)[C@@H]1O.[Na+] (stereo partly drawn) [SRAG2, 3-O-(6-deoxy-6-sulfo-α-D-mannopyranosyl)-1-O-palmitoyl-glycerol sodium salt] | 5.7 | 40 | significant inhibitory activity | 28.7 | 30
4 | CCCCCCCCCCCCCCCCCC(=O)OCC(O)CO[C@H]1O[C@H](CS(=O)(=O)[O-])[C@@H](O)[C@H](O)[C@@H]1O.[Na+] (stereo partly drawn) [SRAG3, 3-O-(6-deoxy-6-sulfo-α-D-mannopyranosyl)-1-O-stearoyl-glycerol sodium salt] | 3.3 | 28.5 | significant inhibitory activity | 11.1 | 14
